Test results taken from publication PMC6632053, “Incorporation of Putative Helix-Breaking Amino Acids in the Design of Novel Stapled Peptides: Exploring Biophysical and Cellular Permeability Properties” (Molecules, 2019).
Where two headings read alike, the source gives them in different places. Bridge positions count the residues as written; N and C are the ends. Square brackets hold non-standard residues; d marks the D form. Peptide text beside a SMILES is read from it. R8 = C=CCCCCCC[C@@](C)(N)C(=O)O; Cba = N[C@@H](CC1CCC1)C(=O)O; S5 = C=CCCC[C@](C)(N)C(=O)O

What was measured:
human Mdm2 1–125 = target: T1, human Mdm2 1–125 (Homo sapiens, UniProt Q00987); experiment: Mdm2 binding assay (competitive fluorescence anisotropy/polarization); settings: competitive fluorescence polarization, read-out: Mdm2 (nM), Mdm2 binding (Kd)
T1 construct: GST (N); His6 (internal); TEV cleavage site ENLYFQG (internal); made in house; host or cells: Escherichia coli BL21 (DE3) Rosetta T1R
T1 sequence (Q00987 with tags, fused parts or gaps): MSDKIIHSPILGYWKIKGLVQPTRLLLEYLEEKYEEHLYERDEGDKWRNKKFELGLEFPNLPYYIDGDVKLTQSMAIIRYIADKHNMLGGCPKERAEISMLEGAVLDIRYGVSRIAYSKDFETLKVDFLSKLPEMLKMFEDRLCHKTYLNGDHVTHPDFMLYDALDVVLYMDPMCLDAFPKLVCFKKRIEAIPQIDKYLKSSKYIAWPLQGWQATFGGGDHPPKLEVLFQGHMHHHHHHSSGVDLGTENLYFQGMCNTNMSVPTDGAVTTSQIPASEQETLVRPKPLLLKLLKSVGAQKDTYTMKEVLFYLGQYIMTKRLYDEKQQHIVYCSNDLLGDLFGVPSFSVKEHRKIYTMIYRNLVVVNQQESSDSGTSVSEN
Procedure: The TEV (tobacco etch virus) cleavage site was changed from ENLYFQS to ENLYFQG to give a fusion protein with the following sequence:
Titrations were carried out with the concentration of Mdm2 held constant at 250 nM and the labeled peptide at 50 nM. The competing molecules were then titrated against the complex of the FAM-labeled peptide and protein. Apparent Kd values were determined by fitting the experimental data to the equations shown below:(2) r=r0+(rb−r0)×2(d^2−3e)cos(θ/3)−9/3Kd1+2(d^2−3e)cos(θ/3)−dd=Kd1+Kd2+[L]st+[L]t−[P]te=([L]t−[P]t)Kd1+([L]st−[P]t)Kd2+Kd1Kd2f=−Kd1Kd2[P]tθ=arcos[−2d^3+9de−27f/2(d^2−3e)^3] where [L]st and [L]t denote labeled ligand and total unlabeled ligand input concentrations, respectively. Kd2 is the dissociation constant of the interaction between the unlabeled ligand and the protein. In all competition experiments, it was assumed that [P]t > [L]st, otherwise considerable amounts of free labeled ligand would always be present and would interfere with measurements. Kd1 is the apparent Kd for the labeled peptide used and was experimentally determined as described in the previous paragraph. The FAM-labeled peptide was dissolved in dimethyl sulfoxide (DMSO) at 1 mM and diluted into the experimental buffer. Readings were carried out with an Envision Multilabel Reader (PerkinElmer). Experiments were carried out in PBS (2.7 mM KCl, 137mM NaCl, 10 mM Na2HPO4, and 2 mM KH2PO4 (pH 7.4)) and 0.1% Tween 20 buffer. All titrations were carried out in triplicate. Curve-fitting was carried out using Prism 4.0 (GraphPad). […] Negative control titrations of the ligands under investigation were also carried out with the fluorescently labeled peptide (in the absence of Mdm2) to ensure no interactions were occurring between the ligands and the FAM-labeled peptide.

[1] = test system: p53 responsive β-lactamase reporter in HCT116 cells; experiment: p53 beta-lactamase reporter gene cellular functional assay; format: cell-based; settings: p53 reporter assay, HCT116, read-out: Cellular (µM), cellular activity (EC50)
Procedure: HCT116 cells were stably transfected with a p53 responsive β-lactamase reporter and were seeded into a 384-well plate at a density of 8000 cells per well. Cells were maintained in McCoy’s 5A Medium with 10% fetal bovine serum (FBS), Blasticidin, and Penicillin/Streptomycin. The cells were incubated overnight, followed by removal of cell growth media and replacement with Opti-MEM either containing 0% FBS or 10% FBS. […] The final working concentration of DMSO was 0.5%. β-lactamase activity was detected using the ToxBLAzer Dual Screen (Invitrogen), as per the manufacturer’s instructions. Measurements were made using the Envision multiplate reader (Perkin–Elmer).

[2] = Circular dichroism (CD) α-helicity; format: physicochemical; settings: for Helicity (%): CD of free peptide, 25 °C, 1 mM Hepes pH 7.4, 5% methanol
Procedure: A total of 5 µL of the 10 mM stock peptide was mixed with 45 µL of 100% methanol, and dried for 2 h in the SpeedVac concentrator (Thermo Scientific). The dried peptide was reconstituted in a buffer (1 mM Hepes pH 7.4 and 5% methanol) to a concentration of 1 mM. The peptide sample was placed in a quartz cuvette with a path length of 0.2 cm. The peptide concentration was determined by the absorbance of the peptide at […]. The CD spectrum was recorded from 300 to 190 nm using the Chirascan-plus qCD machine (Applied Photophysics, Surrey, UK), at 25 °C. All experiments were done in duplicates. The CD spectrum was converted to mean residue ellipticity, before deconvolution and estimation of the secondary structure components of the peptide using the CDNN software (distributed by Applied Photophysics).

| SMILES | Kd (human Mdm2 1–125; Table 1) [nM] | EC50 ([1]; Table 1) [µM] | Helicity (%) ([2]; Table 1) | Kd (human Mdm2 1–125; Table 2) [nM] | EC50 ([1]; Table 2) [µM] | α-helicity by CD [2] [%] | Helicity (%) ([2]; Table 2) |
| --- | --- | --- | --- | --- | --- | --- | --- |
| CC(=O)N[C@@H](CC(C)C)C(=O)N[C@H](C(=O)N[C@@H](Cc1ccccc1)C(=O)N[C@]1(C)CCCCCCC=CCCC[C@@](C)(C(=O)N[C@@H](CO)C(=O)N[C@@H](C)C(=O)N[C@@H](C)C(N)=O)NC(=O)[C@H](CC2CCC2)NC(=O)[C@@H](CC(C)C)NC(=O)[C@H](CCC(N)=O)NC(=O)[C@H](Cc2c[nH]c3ccccc23)NC(=O)[C@H](Cc2ccc(O)cc2)NC(=O)[C@H](CCC(=O)O)NC1=O)[C@@H](C)O [L9(D-Leu)] | 30 | 1.1 | 39.0 | – | – | – | – |
| CC(=O)N[C@@H](CCCCN=[N+]=[N-])C(=O)NCCC(=O)N[C@@H](CC(C)C)C(=O)N[C@H](C(=O)N[C@@H](Cc1ccccc1)C(=O)N[C@]1(C)CCCCCCC=CCCC[C@@](C)(C(=O)N[C@@H](CO)C(=O)N[C@@H](C)C(=O)N[C@@H](C)C(N)=O)NC(=O)[C@H](CC2CCC2)NC(=O)[C@H](CCC(N)=O)NC(=O)[C@H](C)N(C)C(=O)[C@H](Cc2c[nH]c3ccccc23)NC(=O)[C@H](Cc2ccc(O)cc2)NC(=O)[C@H](CCC(=O)O)NC1=O)[C@@H](C)O [A8(N-methyl L-Ala)] | – | – | – | 671 | > 50 | < 30 | 16.9 |
| CC(=O)N[C@@H](CC(C)C)C(=O)N[C@H](C(=O)N[C@@H](Cc1ccccc1)C(=O)N[C@]1(C)CCCCCCC=CCCC[C@@](C)(C(=O)N[C@@H](CO)C(=O)N[C@@H](C)C(=O)N[C@@H](C)C(N)=O)NC(=O)[C@H](CC2CCC2)NC(=O)[C@H](CC(C)C)NC(=O)[C@H](CCC(N)=O)NC(=O)[C@H](Cc2c[nH]c3ccccc23)NC(=O)[C@H](C)NC(=O)[C@H](CCC(=O)O)NC1=O)[C@@H](C)O [Peptide Y6A] (Ac-LTF[R8]EAWQL[Cba][S5]SAA-NH2; staple 4-11) | 38.9 | 0.55 | 50.3 | – | – | – | – |
| CC(=O)N[C@H](CC(C)C)C(=O)N[C@H](C(=O)N[C@@H](Cc1ccccc1)C(=O)NC(C)(C)C(=O)N[C@@H](CCC(=O)O)C(=O)N[C@@H](Cc1ccc(O)cc1)C(=O)N[C@@H](Cc1c[nH]c2ccccc12)C(=O)N[C@@H](CCC(N)=O)C(=O)N[C@@H](CC(C)C)C(=O)N[C@@H](CC1CCC1)C(=O)NC(C)(C)C(=O)N[C@@H](CO)C(=O)N[C@@H](C)C(=O)N[C@@H](C)C(N)=O)[C@@H](C)O [Linear L1(D-Leu)] | 277 | > 50 | 37.2 | – | – | – | – |
| CC(=O)N[C@@H](CC(C)C)C(=O)N[C@H](C(=O)N[C@@H](Cc1ccccc1)C(=O)N[C@]1(C)CCCCCCC=CCCC[C@@](C)(C(=O)N[C@@H](CO)C(=O)N[C@@H](C)C(=O)N[C@@H](C)C(N)=O)NC(=O)[C@H](CC2CCC2)NC(=O)[C@H](CC(C)C)NC(=O)[C@@H](CCC(N)=O)NC(=O)[C@H](Cc2c[nH]c3ccccc23)NC(=O)[C@H](Cc2ccc(O)cc2)NC(=O)[C@H](CCC(=O)O)NC1=O)[C@@H](C)O [Q8(D-Gln)] | 22 | 2.1 | 27.1 | – | – | – | – |
| CC(=O)N[C@@H](CCCCN=[N+]=[N-])C(=O)NCCC(=O)N[C@@H](CC(C)C)C(=O)N[C@H](C(=O)N[C@@H](Cc1ccccc1)C(=O)N[C@]1(C)CCCCCCC=CCCC[C@@](C)(C(=O)N[C@@H](CO)C(=O)N[C@@H](C)C(=O)N[C@@H](C)C(N)=O)NC(=O)[C@H](CC2CCC2)NC(=O)[C@H](CCC(N)=O)NC(=O)[C@H](C)NC(=O)[C@H](Cc2c[nH]c3ccccc23)NC(=O)[C@H](Cc2ccc(O)cc2)NC(=O)CNC1=O)[C@@H](C)O [Peptide E5G] | – | – | – | 61.8 | 0.26 | 28.6 | 28.6 |
| CC(=O)N[C@H](CC(C)C)C(=O)N[C@H](C(=O)N[C@@H](Cc1ccccc1)C(=O)N[C@]1(C)CCCCCCC=CCCC[C@@](C)(C(=O)N[C@@H](CO)C(=O)N[C@@H](C)C(=O)N[C@@H](C)C(N)=O)NC(=O)[C@H](CC2CCC2)NC(=O)[C@H](CC(C)C)NC(=O)[C@H](CCC(N)=O)NC(=O)[C@H](Cc2c[nH]c3ccccc23)NC(=O)[C@H](Cc2ccc(O)cc2)NC(=O)[C@H](CCC(=O)O)NC1=O)[C@@H](C)O [L1(D-Leu)] | 31 | 0.6 | 44.1 | – | – | – | – |
| CC(=O)N[C@@H](CCCCN=[N+]=[N-])C(=O)NCCC(=O)N[C@@H](CC(C)C)C(=O)N[C@H](C(=O)N[C@@H](Cc1ccccc1)C(=O)N[C@]1(C)CCCCCCC=CCCC[C@@](C)(C(=O)N[C@@H](CO)C(=O)N[C@@H](C)C(=O)N[C@@H](C)C(N)=O)NC(=O)[C@H](CC2CCC2)NC(=O)CNC(=O)[C@H](C)NC(=O)[C@H](Cc2c[nH]c3ccccc23)NC(=O)[C@H](Cc2ccc(O)cc2)NC(=O)[C@H](CCC(=O)O)NC1=O)[C@@H](C)O [Peptide Q9G] | – | – | – | 42 | 0.68 | – | 38.8 |
| CC(=O)N[C@@H](CC(C)C)C(=O)N[C@H](C(=O)N[C@@H](C)C(=O)N[C@]1(C)CCCCCCC=CCCC[C@@](C)(C(=O)N[C@@H](CO)C(=O)N[C@@H](C)C(=O)N[C@@H](C)C(N)=O)NC(=O)[C@H](CC2CCC2)NC(=O)[C@H](CC(C)C)NC(=O)[C@H](CCC(N)=O)NC(=O)[C@H](Cc2c[nH]c3ccccc23)NC(=O)[C@H](Cc2ccc(O)cc2)NC(=O)[C@H](CCC(=O)O)NC1=O)[C@@H](C)O [Peptide F3A] (Ac-LTA[R8]EYWQL[Cba][S5]SAA-NH2; staple 4-11) | 3600 | 37 | 48.4 | – | – | – | – |
| CC(=O)N[C@@H](CCCCN=[N+]=[N-])C(=O)NCCC(=O)N[C@@H](CC(C)C)C(=O)N[C@H](C(=O)N[C@@H](Cc1ccccc1)C(=O)N[C@]1(C)CCCCCCC=CCCC[C@@](C)(C(=O)N2CCC[C@H]2C(=O)N[C@@H](C)C(=O)N[C@@H](C)C(N)=O)NC(=O)[C@H](CC2CCC2)NC(=O)[C@H](CCC(N)=O)NC(=O)[C@H](C)NC(=O)[C@H](Cc2c[nH]c3ccccc23)NC(=O)[C@H](Cc2ccc(O)cc2)NC(=O)[C@H](CCC(=O)O)NC1=O)[C@@H](C)O [Peptide S12P] | – | – | – | 45.7 | 3.7 | – | 30.8 |
| CC(=O)N[C@@H](CC(C)C)C(=O)N[C@H](C(=O)N[C@@H](Cc1ccccc1)C(=O)N[C@]1(C)CCCCCCC=CCCC[C@@](C)(C(=O)N[C@@H](CO)C(=O)N[C@@H](C)C(=O)N[C@H](C)C(N)=O)NC(=O)[C@H](CC2CCC2)NC(=O)[C@H](CC(C)C)NC(=O)[C@H](CCC(N)=O)NC(=O)[C@H](Cc2c[nH]c3ccccc23)NC(=O)[C@H](Cc2ccc(O)cc2)NC(=O)[C@H](CCC(=O)O)NC1=O)[C@@H](C)O [A14(D-Ala)] | 18 | 0.5 | 34.6 | – | – | – | – |
| CC(=O)N[C@@H](C)C(=O)N[C@H](C(=O)N[C@@H](Cc1ccccc1)C(=O)N[C@]1(C)CCCCCCC=CCCC[C@@](C)(C(=O)N[C@@H](CO)C(=O)N[C@@H](C)C(=O)N[C@@H](C)C(N)=O)NC(=O)[C@H](CC2CCC2)NC(=O)[C@H](CC(C)C)NC(=O)[C@H](CCC(N)=O)NC(=O)[C@H](Cc2c[nH]c3ccccc23)NC(=O)[C@H](Cc2ccc(O)cc2)NC(=O)[C@H](CCC(=O)O)NC1=O)[C@@H](C)O [Peptide L1A] (Ac-ATF[R8]EYWQL[Cba][S5]SAA-NH2; staple 4-11) | 17.6 | 0.5 | 53.3 | – | – | – | – |
